Relative viability data for 7 cell lines are collected here from the supplement of paper PMC10307832.

Holding throughout (assay): relative viability (nuclei count vs DMSO), 5 days (fraction); higher = more cells survive
Compound in the test “BI-2536 + Luminespib”: CC[C@@H]1C(=O)N(C)c2cnc(Nc3ccc(C(=O)NC4CCN(C)CC4)cc3OC)nc2N1C1CCCC1 [BI-2536] + CCNC(=O)c1noc(-c2cc(C(C)C)c(O)cc2O)c1-c1ccc(CN2CCOCC2)cc1 [Luminespib] (partner 0.01 µM)
The method in brief: (§1)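 Lung cancer cell lines were seeded in 1536-well plates and dosed by pin tool the next day, with either a single drug or a fixed anchor-drug dose combined with five library-drug doses (not always all listed) spaced in √10 steps. Five days later, one step fixed the cells and stained their nuclei (final 0.05% Triton X-100, 1% formaldehyde, 1 ug/ml Hoechst), and nuclei were counted on 4× images. Relative viability is the nuclei count in treated wells divided by the count in vehicle wells, and each value is the median of duplicate plates.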

Compound in test [1]: CC1CC(=O)N(C2=CN=C(N=C2N1C3CCCC3)NC4=C(C=C(C=C4)C(=O)NC5CCN(CC5)C)OC)C [NPK76-II-72-1] + C[C@@H](Oc1cc(-c2cnn(C3CCNCC3)c2)cnc1N)c1c(Cl)ccc(F)c1Cl [Crizotinib] (partner 1 µM)
An outline of the steps:
as §1

Compound in the test “BI-2536 + Dasatinib”: CC[C@@H]1C(=O)N(C)c2cnc(Nc3ccc(C(=O)NC4CCN(C)CC4)cc3OC)nc2N1C1CCCC1 [BI-2536] + Cc1nc(Nc2ncc(C(=O)Nc3c(C)cccc3Cl)s2)cc(N2CCN(CCO)CC2)n1 [Dasatinib] (partner 0.075 µM)
An outline of the steps: as §1

Compound in the test “BI-2536 + Navitoclax”: CC[C@@H]1C(=O)N(C)c2cnc(Nc3ccc(C(=O)NC4CCN(C)CC4)cc3OC)nc2N1C1CCCC1 [BI-2536] + CC1(C)CCC(c2ccc(Cl)cc2)=C(CN2CCN(c3ccc(C(=O)NS(=O)(=O)c4ccc(N[C@H](CCN5CCOCC5)CSc5ccccc5)c(S(=O)(=O)C(F)(F)F)c4)cc3)CC2)C1 [Navitoclax] (partner 0.5 µM)
An outline of the steps:
as §1

Take NCI-H1666: the relative viability in the test with BI-2536 + Luminespib (first compound 0.01 µM) was determined as 1.01; with BI-2536 + Luminespib (first compound 0.03162 µM), 0.933; with BI-2536 + Luminespib (first compound 0.1 µM), 0.866; in the test with BI-2536 + Luminespib (first compound 0.3162 µM), 0.382; with BI-2536 + Luminespib (first compound 1 µM), 0.34; in test [1] (first compound 0.01 µM) it was 0.855. Further, the relative viability in test [1] (first compound 0.03162 µM) was 1.03; in test [1] (first compound 0.1 µM), 0.92; in test [1] (first compound 0.3162 µM), 0.917; in test [1] (first compound 1 µM), 1.09; with BI-2536 + Dasatinib (first compound 0.01 µM), 0.765; in the test with BI-2536 + Dasatinib (first compound 0.03162 µM), 0.653. Moreover, the relative viability was determined as 0.716 in the test with BI-2536 + Dasatinib (first compound 0.1 µM); 0.313 in the test with BI-2536 + Dasatinib (first compound 0.3162 µM); 0.267 with BI-2536 + Dasatinib (first compound 1 µM); 1.13 in the test with BI-2536 + Navitoclax (first compound 0.01 µM); 0.905 with BI-2536 + Navitoclax (first compound 0.03162 µM); 0.702 in the test with BI-2536 + Navitoclax (first compound 0.1 µM). The relative viability came to 0.262 with BI-2536 + Navitoclax (first compound 0.3162 µM) and 0.214 in the test with BI-2536 + Navitoclax (first compound 1 µM).
As to NCI-H1734, the relative viability with BI-2536 + Luminespib (first compound 0.01 µM) came out at 0.22; with BI-2536 + Luminespib (first compound 0.03162 µM), 0.157; in the test with BI-2536 + Luminespib (first compound 0.1 µM), 0.137; with BI-2536 + Luminespib (first compound 0.3162 µM), 0.122; with BI-2536 + Luminespib (first compound 1 µM), 0.133; in test [1] (first compound 0.01 µM), 0.703. Further, the relative viability in test [1] (first compound 0.03162 µM) stood at 0.666; in test [1] (first compound 0.1 µM) it was 0.727; in test [1] (first compound 0.3162 µM), 0.642; in test [1] (first compound 1 µM), 0.736; with BI-2536 + Dasatinib (first compound 0.01 µM), 0.439; with BI-2536 + Dasatinib (first compound 0.03162 µM), 0.462. For the same cell line, the relative viability in the test with BI-2536 + Dasatinib (first compound 0.1 µM) amounted to 0.167; with BI-2536 + Dasatinib (first compound 0.3162 µM), 0.145; in the test with BI-2536 + Dasatinib (first compound 1 µM), 0.131; in the test with BI-2536 + Navitoclax (first compound 0.01 µM) it was 0.746; with BI-2536 + Navitoclax (first compound 0.03162 µM), 0.629; with BI-2536 + Navitoclax (first compound 0.1 µM) it was 0.636. The relative viability came to 0.102 with BI-2536 + Navitoclax (first compound 0.3162 µM) and 0.113 in the test with BI-2536 + Navitoclax (first compound 1 µM).
For NCI-H1755, the relative viability with BI-2536 + Luminespib (first compound 0.01 µM) worked out at 0.291; with BI-2536 + Luminespib (first compound 0.03162 µM), 0.416; with BI-2536 + Luminespib (first compound 0.1 µM), 0.298; in the test with BI-2536 + Luminespib (first compound 0.3162 µM), 0.283; with BI-2536 + Luminespib (first compound 1 µM) it was 0.327; in test [1] (first compound 0.01 µM), 0.866. Moreover, the relative viability in test [1] (first compound 0.03162 µM) amounted to 0.864; in test [1] (first compound 0.1 µM), 0.838; in test [1] (first compound 0.3162 µM), 0.837; in test [1] (first compound 1 µM), 0.939; with BI-2536 + Dasatinib (first compound 0.01 µM), 0.452; with BI-2536 + Dasatinib (first compound 0.03162 µM) it was 0.391. The relative viability with BI-2536 + Dasatinib (first compound 0.1 µM) turned out to be 0.271; in the test with BI-2536 + Dasatinib (first compound 0.3162 µM), 0.195; in the test with BI-2536 + Dasatinib (first compound 1 µM), 0.198; with BI-2536 + Navitoclax (first compound 0.01 µM), 1; with BI-2536 + Navitoclax (first compound 0.03162 µM) it was 0.909; with BI-2536 + Navitoclax (first compound 0.1 µM), 0.903. Besides, the relative viability with BI-2536 + Navitoclax (first compound 0.3162 µM) amounted to 0.152; in the test with BI-2536 + Navitoclax (first compound 1 µM), 0.127.
For the cell line NCI-H1792, the relative viability in the test with BI-2536 + Luminespib (first compound 0.01 µM) came out at 0.485; in the test with BI-2536 + Luminespib (first compound 0.03162 µM), 0.432; in the test with BI-2536 + Luminespib (first compound 0.1 µM), 0.388; with BI-2536 + Luminespib (first compound 0.3162 µM), 0.229; in the test with BI-2536 + Luminespib (first compound 1 µM), 0.28; in test [1] (first compound 0.01 µM), 1.05. Further, the relative viability in test [1] (first compound 0.03162 µM) came to 0.817; in test [1] (first compound 0.1 µM), 0.968; in test [1] (first compound 0.3162 µM), 1; in test [1] (first compound 1 µM), 1.07; with BI-2536 + Dasatinib (first compound 0.01 µM), 0.762; with BI-2536 + Dasatinib (first compound 0.03162 µM), 0.916. Further, the relative viability with BI-2536 + Dasatinib (first compound 0.1 µM) was 0.885; with BI-2536 + Dasatinib (first compound 0.3162 µM), 0.498; with BI-2536 + Dasatinib (first compound 1 µM), 0.34; with BI-2536 + Navitoclax (first compound 0.01 µM) it was 0.624; with BI-2536 + Navitoclax (first compound 0.03162 µM) it was 0.589; with BI-2536 + Navitoclax (first compound 0.1 µM) it was 0.559. Besides, the figures for the relative viability in the test with BI-2536 + Navitoclax (first compound 0.3162 µM) and with BI-2536 + Navitoclax (first compound 1 µM) were 0.171 and 0.0662, respectively.
As for NCI-H1915, the relative viability with BI-2536 + Luminespib (first compound 0.01 µM) is 0.848; with BI-2536 + Luminespib (first compound 0.03162 µM), 0.379; with BI-2536 + Luminespib (first compound 0.1 µM), 0.219; with BI-2536 + Luminespib (first compound 0.3162 µM) it was 0.0675; with BI-2536 + Luminespib (first compound 1 µM) it was 0.0811; in test [1] (first compound 0.01 µM), 0.87. The relative viability in test [1] (first compound 0.03162 µM) turned out to be 0.969; in test [1] (first compound 0.1 µM), 0.874; in test [1] (first compound 0.3162 µM), 0.891; in test [1] (first compound 1 µM) it was 0.876; with BI-2536 + Dasatinib (first compound 0.01 µM), 0.292; with BI-2536 + Dasatinib (first compound 0.03162 µM) it was 0.354. For the same cell line, the relative viability with BI-2536 + Dasatinib (first compound 0.1 µM) was determined as 0.139; with BI-2536 + Dasatinib (first compound 0.3162 µM), 0.156; with BI-2536 + Dasatinib (first compound 1 µM), 0.0656; with BI-2536 + Navitoclax (first compound 0.01 µM), 0.781; in the test with BI-2536 + Navitoclax (first compound 0.03162 µM), 0.765; in the test with BI-2536 + Navitoclax (first compound 0.1 µM), 0.694. The relative viability with BI-2536 + Navitoclax (first compound 0.3162 µM) was 0.11; with BI-2536 + Navitoclax (first compound 1 µM) it was 0.0514.
Regarding NCI-H1944, the relative viability with BI-2536 + Luminespib (first compound 0.01 µM) turned out to be 0.694; with BI-2536 + Luminespib (first compound 0.03162 µM), 0.794; with BI-2536 + Luminespib (first compound 0.1 µM) it was 0.863; with BI-2536 + Luminespib (first compound 0.3162 µM) it was 0.107; in the test with BI-2536 + Luminespib (first compound 1 µM) it was 0.136; in test [1] (first compound 0.01 µM) it was 0.985. The relative viability in test [1] (first compound 0.03162 µM) worked out at 1.12; in test [1] (first compound 0.1 µM) it was 1.1; in test [1] (first compound 0.3162 µM), 1.01; in test [1] (first compound 1 µM), 1.22; in the test with BI-2536 + Dasatinib (first compound 0.01 µM) it was 0.218; with BI-2536 + Dasatinib (first compound 0.03162 µM), 0.232. Also, the relative viability in the test with BI-2536 + Dasatinib (first compound 0.1 µM) was found to be 0.177; with BI-2536 + Dasatinib (first compound 0.3162 µM) it was 0.126; in the test with BI-2536 + Dasatinib (first compound 1 µM), 0.132; with BI-2536 + Navitoclax (first compound 0.01 µM), 1.05; with BI-2536 + Navitoclax (first compound 0.03162 µM) it was 1.05; in the test with BI-2536 + Navitoclax (first compound 0.1 µM), 1.05. The relative viability in the test with BI-2536 + Navitoclax (first compound 0.3162 µM) amounted to 0.377; with BI-2536 + Navitoclax (first compound 1 µM), 0.157.
NCI-H1975: the relative viability came out at 0.253 with BI-2536 + Luminespib (first compound 0.01 µM); 0.209 with BI-2536 + Luminespib (first compound 0.03162 µM); 0.231 with BI-2536 + Luminespib (first compound 0.1 µM); 0.158 with BI-2536 + Luminespib (first compound 0.3162 µM); 0.149 with BI-2536 + Luminespib (first compound 1 µM); 0.939 in test [1] (first compound 0.01 µM). For the same cell line, the relative viability in test [1] (first compound 0.03162 µM) stood at 0.965; in test [1] (first compound 0.1 µM), 0.914; in test [1] (first compound 0.3162 µM), 0.876; in test [1] (first compound 1 µM), 0.95; with BI-2536 + Dasatinib (first compound 0.01 µM), 0.374; with BI-2536 + Dasatinib (first compound 0.03162 µM), 0.334. Also, the relative viability with BI-2536 + Dasatinib (first compound 0.1 µM) is 0.194; in the test with BI-2536 + Dasatinib (first compound 0.3162 µM), 0.0936; with BI-2536 + Dasatinib (first compound 1 µM) it was 0.0979; with BI-2536 + Navitoclax (first compound 0.01 µM), 1.12; with BI-2536 + Navitoclax (first compound 0.03162 µM), 1.08; with BI-2536 + Navitoclax (first compound 0.1 µM), 0.932. For the same cell line, the relative viability was determined as 0.182 in the test with BI-2536 + Navitoclax (first compound 0.3162 µM) and 0.17 with BI-2536 + Navitoclax (first compound 1 µM).
